From ChEMBL document CHEMBL3774317, “Design and synthesis of novel tamoxifen analogues that avoid CYP2D6 metabolism” (Eur J Med Chem, 2016)

Legend:
[1] = Cytotoxicity against human HOP92 cells assessed as cell growth at 50 nM after 48 hrs by SRB assay; assay type: functional; details: HOP-92, 48 h, read-out: Activity
NCI-H23 = assay: Cytotoxicity against human NCI-H23 cells assessed as cell growth at 50 nM after 48 hrs by SRB assay; assay type: functional; details: NCI-H23, 48 h, read-out: Activity
[2] = Cytotoxicity against human UACC62 cells assessed as cell growth at 50 nM after 48 hrs by SRB assay; assay type: functional; details: UACC-62, 48 h, read-out: Activity
[3] = Cytotoxicity against human OVCAR5 cells assessed as cell growth at 50 nM after 48 hrs by SRB assay; assay type: functional; details: OVCAR-5, 48 h, read-out: Activity
[4] = Cytotoxicity against human DU145 cells assessed as cell growth at 50 nM after 48 hrs by SRB assay; assay type: functional; details: DU-145, 48 h, read-out: Activity
[5] = Cytotoxicity against human OVCAR8 cells assessed as cell growth at 50 uM after 48 hrs by SRB assay; assay type: functional; details: OVCAR-8, 48 h, read-out: Activity
[6] = Metabolic stability in human hepatocytes assessed as remaining parent compound level at 10 uM after 3 hrs by LC/MS analysis; assay type: ADME, cell-based, Hepatocyte; details: read-out: Drug metabolism
NCI-H460 = assay: Cytotoxicity against human NCI-H460 cells assessed as cell growth at 0.5 uM after 48 hrs by SRB assay; assay type: functional; details: NCI-H460, 48 h, read-out: Activity
[7] = Cytotoxicity against human SNB75 cells assessed as cell growth at 0.5 uM after 48 hrs by SRB assay; assay type: functional; details: SNB-75, 48 h, read-out: Activity
M14 [8] = assay: Cytotoxicity against human M14 cells assessed as cell growth at 0.5 uM after 48 hrs by SRB assay; assay type: functional; details: M14, 48 h, read-out: Activity
SK-MEL-5 [9] = assay: Cytotoxicity against human SK-MEL-5 cells assessed as cell growth at 0.5 uM after 48 hrs by SRB assay; assay type: functional; details: SK-MEL-5, 48 h, read-out: Activity
[10] = Cytotoxicity against human HCT15 cells assessed as cell growth at 5 nM after 48 hrs by SRB assay; assay type: functional; details: HCT-15, 48 h, read-out: Activity
SK-MEL-5 [11] = assay: Cytotoxicity against human SK-MEL-5 cells assessed as cell growth at 5 nM after 48 hrs by SRB assay; assay type: functional; details: SK-MEL-5, 48 h, read-out: Activity
ACHN [12] = assay: Cytotoxicity against human ACHN cells assessed as cell growth at 5 nM after 48 hrs by SRB assay; assay type: functional; details: read-out: Activity
[13] = Cytotoxicity against human HCT15 cells assessed as cell growth at 5 uM after 48 hrs by SRB assay; assay type: functional; details: HCT-15, 48 h, read-out: Activity
Malme-3M = assay: Cytotoxicity against human MALME-3M cells assessed as cell growth at 5 uM after 48 hrs by SRB assay; assay type: functional; details: read-out: Activity
[14] = Cytotoxicity against human OVCAR5 cells assessed as cell growth at 5 uM after 48 hrs by SRB assay; assay type: functional; details: OVCAR-5, 48 h, read-out: Activity
MCF7 [15] = assay: Cytotoxicity against human MCF7 cells assessed as cell growth at 5 uM after 48 hrs by SRB assay; assay type: functional; details: MCF7, 48 h, read-out: Activity
[16] = Cytotoxicity against human COLO205 cells assessed as cell growth at 50 uM after 48 hrs by SRB assay; assay type: functional; details: COLO 205, 48 h, read-out: Activity
[17] = Cytotoxicity against human HCT15 cells assessed as cell growth at 50 uM after 48 hrs by SRB assay; assay type: functional; details: HCT-15, 48 h, read-out: Activity
SK-MEL-28 [18] = assay: Cytotoxicity against human SK-MEL-28 cells assessed as cell growth at 10^-7 M after 48 hrs by SRB assay; assay type: functional; details: SK-MEL-28, 48 h, read-out: Activity
[19] = Cytotoxicity against human OVCAR5 cells assessed as cell growth at 10^-7 M after 48 hrs by SRB assay; assay type: functional; details: OVCAR-5, 48 h, read-out: Activity
A498 = assay: Cytotoxicity against human A498 cells assessed as cell growth at 10^-7 M after 48 hrs by SRB assay; assay type: functional; details: A498, 48 h, read-out: Activity
MDA-MB-231 = assay: Cytotoxicity against human MDA-MB-231 cells assessed as cell growth at 10^-7 M after 48 hrs by SRB assay; assay type: functional; details: MDA-MB-231, 48 h, read-out: Activity
[20] = Cytotoxicity against human MOLT4 cells assessed as cell growth at 10^-6 M after 48 hrs by SRB assay; assay type: functional; details: MOLT-4, 48 h, read-out: Activity
[21] = Cytotoxicity against human Caki1 cells assessed as cell growth at 10^-4 M after 48 hrs by SRB assay; assay type: functional; details: CAKI-1, 48 h, read-out: Activity
SN12C = assay: Cytotoxicity against human SN12C cells assessed as cell growth at 10^-4 M after 48 hrs by SRB assay; assay type: functional; details: read-out: Activity
MDA-MB-435 = assay: Cytotoxicity against human MDA-MB-435 cells assessed as cell growth at 10^-6 M after 48 hrs by SRB assay; assay type: functional; details: MDA-MB-435, 48 h, read-out: Activity
MCF7 [22] = assay: Cytotoxicity against human MCF7 cells assessed as cell growth at 10^-6 M after 48 hrs by SRB assay; assay type: functional; details: MCF7, 48 h, read-out: Activity
NCI-H522 = assay: Cytotoxicity against human NCI-H522 cells assessed as cell growth at 10^-8 M after 48 hrs by SRB assay; assay type: functional; details: NCI-H522, 48 h, read-out: Activity
HT-29 = assay: Cytotoxicity against human HT-29 cells assessed as cell growth at 10^-8 M after 48 hrs by SRB assay; assay type: functional; details: HT-29, 48 h, read-out: Activity
[23] = Cytotoxicity against human SNB75 cells assessed as cell growth at 10^-8 M after 48 hrs by SRB assay; assay type: functional; details: SNB-75, 48 h, read-out: Activity
[24] = Cytotoxicity against human OVCAR5 cells assessed as cell growth at 10^-8 M after 48 hrs by SRB assay; assay type: functional; details: OVCAR-5, 48 h, read-out: Activity
ACHN [25] = assay: Cytotoxicity against human ACHN cells assessed as cell growth at 10^-8 M after 48 hrs by SRB assay; assay type: functional; details: read-out: Activity
[26] = Cytotoxicity against human PC3 cells assessed as cell growth at 10^-8 M after 48 hrs by SRB assay; assay type: functional; details: PC-3, 48 h, read-out: Activity
MDA-MB-468 = assay: Cytotoxicity against human MDA-MB-468 cells assessed as cell growth at 10^-8 M after 48 hrs by SRB assay; assay type: functional; details: MDA-MB-468, 48 h, read-out: Activity
SK-MEL-28 [27] = assay: Cytotoxicity against human SK-MEL-28 cells assessed as cell growth at 10^-5 M after 48 hrs by SRB assay; assay type: functional; details: SK-MEL-28, 48 h, read-out: Activity
[28] = Cytotoxicity against human UACC62 cells assessed as cell growth at 10^-5 M after 48 hrs by SRB assay; assay type: functional; details: UACC-62, 48 h, read-out: Activity
[29] = Cytotoxicity against human NCI-ADR-RES cells assessed as cell growth at 10^-5 M after 48 hrs by SRB assay; assay type: functional; details: read-out: Activity
K562 = assay: Cytotoxicity against human K562 cells assessed as cell growth at 10^-4 M after 48 hrs by SRB assay; assay type: functional; details: K562, 48 h, read-out: Activity
M14 [30] = assay: Cytotoxicity against human M14 cells assessed as cell growth at 10^-4 M after 48 hrs by SRB assay; assay type: functional; details: M14, 48 h, read-out: Activity
SK-MEL-28 [31] = assay: Cytotoxicity against human SK-MEL-28 cells assessed as cell growth at 10^-4 M after 48 hrs by SRB assay; assay type: functional; details: SK-MEL-28, 48 h, read-out: Activity

CCCCCCCCCC(=O)Oc1ccc(/C(=C(/C)c2ccccc2)c2ccc(OCCN3CCCC3)cc2)cc1
growth at 0.05 µM [1]: 83%
growth at 0.05 µM (NCI-H23): 96%
growth at 0.05 µM [2]: 99%
growth at 0.05 µM [3]: 94%
growth at 0.05 µM [4]: 98%
growth at 50 µM [5]: -58%
remaining at 3 h, 10 µM [6]: 36%
growth at 0.5 µM (NCI-H460): 78%
growth at 0.5 µM [7]: 68%
growth at 0.5 µM (M14 [8]): 42%
growth at 0.5 µM (SK-MEL-5 [9]): 62%
growth at 0.005 µM [10]: 98%
growth at 0.005 µM (SK-MEL-5 [11]): 100%
growth at 0.005 µM (ACHN [12]): 101%
growth at 5 µM [13]: 72%
growth at 5 µM (Malme-3M): 81%
growth at 5 µM [14]: 91%
growth at 5 µM (MCF7 [15]): 36%
growth at 50 µM [16]: -89%
growth at 50 µM [17]: -100%

C/C(=C(/c1ccc(O)cc1)c1ccc(OCCN2CCCC2)cc1)c1ccccc1
growth at 0.1 µM (SK-MEL-28 [18]): 97%
growth at 0.1 µM [19]: 90%
growth at 0.1 µM (A498): 60%
growth at 0.1 µM (MDA-MB-231): 116%
growth at 1 µM [20]: 92%
growth at 100 µM [21]: -100%
growth at 100 µM (SN12C): -69%
growth at 1 µM (MDA-MB-435): 87%
growth at 1 µM (MCF7 [22]): 36%
growth at 0.01 µM (NCI-H522): 88%
growth at 0.01 µM (HT-29): 101%
growth at 0.01 µM [23]: 72%
growth at 0.01 µM [24]: 88%
growth at 0.01 µM (ACHN [25]): 93%
growth at 0.01 µM [26]: 104%
growth at 0.01 µM (MDA-MB-468): 99%
growth at 10 µM (SK-MEL-28 [27]): -74%
growth at 10 µM [28]: -51%
growth at 10 µM [29]: 25%
growth at 100 µM (K562): -70%
growth at 100 µM (M14 [30]): -96%
growth at 100 µM (SK-MEL-28 [31]): -93%
